From patent US4363922A, “Esters of antibiotic nodusmicin” (priority 1981, dated 1982) come the findings set out here.

For one test, the system named is Mycobacterium avium. In words: Antibiotic activity against Mycobacterium avium. Type of test: cell-based.
The next test concerns S. lutea. Put plainly: Antibiotic activity against S. lutea. Type of test: cell-based.
The next test concerns K. pneumoniae. In words: Antibiotic activity against K. pneumoniae. The class given is cell-based.
For the next test, the system named is B. fragilis. In words: Antibiotic activity against B. fragilis. Type of test: cell-based.
A further test deals with C. perfringens. The class given is cell-based.
The next test deals with S.lutea UC-130. Put plainly: Dipped disc agar diffusion assay, S. lutea. The following applies: Micrococcus luteus, UC130, 16 h, read-out: Agar Diffusion 1 mg./ml. S.lutea UC-130 (inhibition zone).
The next test relates to S.aureus UC-76. In words: Minimum Inhibitory Concentration, microplate broth-dilution, S. aureus UC-76. The following applies: Staphylococcus aureus, UC76, read-out: MIC S.aureus UC-76, BHI broth; sensitive strain.
For the next test, the system named is S.aureus UC-570. Put plainly: Minimum Inhibitory Concentration, microplate broth-dilution, S. aureus UC-570. The conditions noted are these: Staphylococcus aureus, UC570, read-out: MIC S.aureus UC-570, BHI broth; sensitive strain.
In the next test the test system is S.aureus UC-746. In words: Minimum Inhibitory Concentration, microplate broth-dilution, S. aureus UC-746. The following applies: Staphylococcus aureus, UC746, read-out: MIC S.aureus UC-746, BHI broth; strain resistant to tetracycline.
For a further test, the system named is S.pyrogenes UC-152. In words: Minimum Inhibitory Concentration, microplate broth-dilution, S. pyrogenes UC-152. The conditions noted are these: read-out: MIC S.pyrogenes UC-152, BHI broth.

Converted amounts (≈) assume the structure as drawn.

As to `COC1CC2C=CC3C4OC2(C(C)=CC(C)C(C(C)O)OC1=O)C3C(O)C(C)C4O` (stereo not shown) [U-59,761, nodusmicin], the “activity against Mycobacterium avium” value in the test with Mycobacterium avium is given as “active”. Besides, the “activity against S. lutea” value in the test on S. lutea was “active”. Also, in the test on K. pneumoniae, the “activity against K. pneumoniae” value was “active”. The “activity against B. fragilis” value with B. fragilis is listed as “active”. Further, in the test with C. perfringens, the “activity against C. perfringens” value is given as “active”. Further, the zone of inhibition at 1000 µg/mL in the test on S.lutea UC-130 was found to be 40 mm. For the same compound, the MIC (as a rule, the lowest concentration found to suppress growth) in the test with S.aureus UC-76 turned out to be 125 µg/mL (≈ 296 µM); in the test with S.aureus UC-570, 250 µg/mL (≈ 592 µM); with S.aureus UC-746, 250 µg/mL (≈ 592 µM); with S.pyrogenes UC-152 it was 500 µg/mL (≈ 1180 µM).
